Experimental data as given in patent publication US10765638B2, “Particle formulation with polycation complex” (Yale University, priority 2017, dated 2020).

What was measured:
D54-ERLucT xenografts = test: Bioluminescent imaging of inhibition of N-linked glycosylation in xenografts; assay type: in vivo, mice; conditions: 24 hours; tunicamycin 1 mg/kg, positive control
Procedure: All experimental procedures were approved in accordance with IACUC and Yale University institutional guidelines for animal care and ethics and guidelines for the welfare and use of animals in cancer research (Workman et al., Br J Cancer, 102:1555-77 (2010)). NGI-1 delivery to glioma xenografts was evaluated using a bioluminescent imaging platform that detects inhibition of NLG (Contessa at al., Clin Cancer Res., 16:3205-14 (2010)). Ten days after subcutaneous injection of 1×10^7 gliomas cells, mice bearing palpable tumors were treated with control or NGI-1 NPs (20 mg/kg), or tunicamycin 1 mg/kg and imaged 5-30 minutes after delivery of i.p. luciferin (150 mg/kg). Signal intensity was quantified for a region of interest (ROI) encompassing each tumor and induction of bioluminscence was calculated by comparing peak bioluminescent activity from pre- and post-treatment imaging at 24 and 48 hours.

[1] = Contessa et al., Clin Cancer Res. 2010; cited from earlier work
H1975-OR xenografts = test: NSCLC xenograft tumor growth; assay type: in vivo, athymic Swiss nu/nu mice; conditions: 5 mg/kg osimertinib oral daily; 5 mg/kg NGI-1-NP as printed in b391 (20 mg/kg elsewhere in the source); blank NPs 926±253 mm3
Procedure: The effects of NGI-1 were evaluated in Six-to-eight-week old female athymic Swiss nu/nu mice bearing bilateral flank xenograft tumors. Five days after inoculation, mice were randomized to receive i.v. NGI-1 NPs (20 mg/kg) or blank NPs three times per week for a total of 8 doses. […] Tumor size was measured three times per week and volume was calculated according to the formula π/6×(length)×(width)^2.

H1975 and H1975-OR cells = test: MTT proliferation assay; assay type: cell-based; conditions: 1 μM Osimertinib
Procedure: The H1975 and A549 cell lines were purchased from ATCC (Manassas, Va.), the PC9 cell line was a gift from Katie Politi, and the HCC-827 and HCC-827-GR lines were gifts from Jeff Engelman (MGH, Boston Mass.). Cell lines were cultured in RPMI 1640+10% FBS supplemented with penicillin and streptomycin (Gibco, Life Technologies, Grand Island, N.Y., US) in a humidified incubator with 5% CO2, and they were kept in culture no more than 4 months after resuscitation from the original stocks. No additional authentication was performed. Mycoplasma cell culture contamination was routinely checked and ruled out using the MycoAlert Mycoplasma Detection Kit (Lonza, Rockland, Me. USA). To generate a TKI resistant cell lines, either PC9 or H1975 cells were exposed to increasing concentrations of gefitinib or osimertinib, respectively. Gefitinib or Osimertinib concentrations were increased stepwise when cells resumed growth kinetics similar to the untreated parental cells over a dose range from 10 to 500 nM. Resistant cell cultures were obtained ˜8-12 weeks after initiation of drug exposure. To confirm the emergence of a therapeutic resistant, MTT assays were performed after allowing the cells to grow in drug-free conditions for at least 4 days.
Growth rates were determined by CellTiter 96 NonRadioactive Cell Proliferation Assay (Promega; Madison, Wis., USA) according to the manufacturer's directions. Briefly, NSCLC cells (2×103) untreated or treated with 10 μM NGI-1, 100 nM Gefitinib, or 1 μM Osimertinib (Selleck Chemicals), were seeded in triplicate in 96-wells plates and grown in culture medium containing 10% serum. The media was changed with or without new inhibitor every 48 h. Cell numbers were estimated after 0, 3, and 5 days by adding MTT (3-(4,5-dimethylthiazol-2-yl)-2,5-diphenyltetrazolium bromide) reagent to the wells 4 h before taking the spectrophotometric reading (absorbance at 570 nm).

LC-1F = conditions: read-out: IC50 for erlotinib (printed in the Afatinib column, marked &), cancerrxgene.org; cited from earlier work

For tunicamycin, the induction of bioluminescence (D54-ERLucT xenografts) is given as 4.2 fold and the toxicity [1] is given as “significant toxicity both in vitro and in vivo”.

In the case of `C=CC(=O)Nc1cc(Nc2nccc(-c3cn(C)c4ccccc34)n2)c(OC)cc1N(C)CCN(C)C` [osimertinib], the “mean tumor volume at day 78” value (H1975-OR xenografts) is reported as 584±296 mm^3, the “sensitivity of proliferation to osimertinib” value (H1975 and H1975-OR cells; H1975-OR cells) is reported as “resistant” and the “sensitivity of proliferation to osimertinib” value (H1975 and H1975-OR cells; H1975 cells) is reported as “sensitive”.

For `C#Cc1cccc(Nc2ncnc3cc(OCCOC)c(OCCOC)cc23)c1` [erlotinib], the IC50 (LC-1F) is given as 390 nM.
